pEC50: −log10 of the molar value.

This note sets out measurements from US10729688B2, “Hepatitis B antiviral agents” (Enanta Pharmaceuticals, Inc., priority 2018, dated 2020).

In one data set the test system is HBV. Briefly: HepAD38 antiviral assay: reduction of viral product accumulation. Format: cell-based. As to conditions: Hepatitis B virus, 120 h; HepAD38 cells, tetracycline removed; harvest five days after compound addition; viral product (virion DNA by qPCR, or HBsAg/HBeAg by ELISA) reduced by 50% relative to no drug controls. As to the method: (§1) Methods: HepAD38 cells were maintained as previously reported (Ladner et al, Antimicrob. Agents Chemother. 1997, 4, 1715). Briefly, cells were passaged upon attaining confluency in DMEM/F12 media in the presence of 10% FBS, Penn/Strep, 250 μg/mL G418, and 1 ug/ml tetracycline. Compounds were screened by first washing cells three times with PBS to remove tetracycline, and plating in 96 well plates at 35,000 cells/well. Compounds dissolved in DMSO were then diluted 1:200 into wells containing cells. Five days after compound addition, material was harvested for analysis. For an extended 8 day analysis, cells were plated and treated as described above, but media and compound were refreshed on day 2 and day 5 post initial treatment.
On harvest day, virion DNA was obtained by lysing with Sidestep Lysis and Stabilization Buffer and then quantified via quantitative real time PCR. Commercially available ELISA kits were used to quantitate the viral proteins HBsAg (Alpco) or HbeAg (US Biological) by following the manufacturer's recommended protocol after diluting samples to match the linear range of their respective assays. Irrespective of readout, compound concentrations that reduce viral product accumulation in the cell lysates or supernatants by 50% relative to no drug controls (EC50) are reported; EC50 ranges are as follows: A<0.1 μM; B 0.1-0.2 μM; C>0.2 μM.
(Real-time PCR tracks product formation cycle by cycle.)

Data set [1] is described as follows: Compound toxicity, ATPLite total ATP levels. The data set is classed as cell-based. As to conditions: human, HepAD38 cells; 15,000 cells/well; three days after compound addition; total ATP levels reduced by 50% relative to no drug controls. On the procedure:
as §1
Compound toxicity was evaluated by seeding cells at 15,000 cells/well and treating with compound as described above.
Background: ATP-based viability assays read luminescence as a measure of living cells.

Take `O=C(Nc1cc(F)c(F)c(F)c1)N1Cc2c(N3CCCS3(=O)=O)cnn2[C@@H]2CCCC[C@@H]21` [Example 51]: the pEC50 in the data set on HBV is over 7.00. This molecule gave a CC50 at 3 days in data set [1] of over 25 µM.

In turn, `O=C(Nc1cc(F)c(F)c(F)c1)N1Cc2c(N3C(=O)O[C@@H]4CCCC[C@@H]43)cnn2[C@@H]2CCC[C@@H]21` [Example 53] showed a pEC50 in the data set on HBV of over 7.00. The CC50 at 3 days in data set [1] is over 25 µM.

With `CC1(C)COC(=O)N1c1cnn2c1CN(C(=O)Nc1cc(F)c(F)c(F)c1)[C@H]1CCC[C@H]12` [Example 60], the pEC50 in the data set with HBV is over 7.00. Further, in data set [1], the CC50 at 3 days is over 25 µM.

With `O=C(Nc1cc(F)c(F)c(F)c1)N1Cc2c(N3CCCS3(=O)=O)cnn2C[C@@H]1c1ccccn1` [Example 72], in the data set on HBV, the pEC50 is over 7.00. Besides, the CC50 at 3 days in data set [1] is over 25 µM.

In turn, `O=C(Nc1cc(F)c(F)c(F)c1)N1Cc2c(N3CCCS3(=O)=O)cnn2C[C@@H]1C1CC1` [Example 73] had a pEC50 with HBV of over 7.00. The same molecule yielded a CC50 at 3 days in data set [1] of over 25 µM.

One may read the pEC50 as −log10 of the EC50, conventionally taken in molar units. Read a high pEC50 as a low EC50. The CC50 is the concentration at which the toxic effect on the cells reaches its halfway point.
